From the NIST ThermoML archive (doi:10.1016/j.fluid.2012.12.036)

Details: Crystal; for vapor or sublimation pressure: Calculated from knudsen effusion weight loss; for Normal melting temperature: visual observation

Brc1c2ccccc2cc2ccccc12 [9-bromoanthracene]
Details | Normal melting temperature [°C] | vapor or sublimation pressure [kPa]
– | 101.00 | –
314.8 K | – | 5.1e-06
319.8 K | – | 1.06e-05
324.8 K | – | 1.71e-05
329.8 K | – | 3.26e-05
334.9 K | – | 5.32e-05
339.9 K | – | 9.3e-05
345 K | – | 0.000158
350 K | – | 0.000261
355 K | – | 0.000418

Brc1ccc2cc3ccccc3cc2c1 [anthracene, 2-bromo-]
Details | Normal melting temperature [°C] | vapor or sublimation pressure [kPa]
– | 220.70 | –
334.8 K | – | 5.41e-06
339.8 K | – | 9.21e-06
344.9 K | – | 1.56e-05
350 K | – | 2.61e-05
355 K | – | 4.15e-05
360.1 K | – | 7.18e-05
365.2 K | – | 0.000114
370.4 K | – | 0.000184
375.3 K | – | 0.000287
380.4 K | – | 0.000437
385.4 K | – | 0.000652
390.4 K | – | 0.000887

c1ccc2cc3ccccc3cc2c1 [anthracene]
Details | Normal melting temperature [°C] | vapor or sublimation pressure [kPa]
– | 216.90 | –
322.9 K | – | 1.82e-05
328 K | – | 2.97e-05
333 K | – | 5.58e-05
338.1 K | – | 8.91e-05
343.1 K | – | 0.000146
348.2 K | – | 0.000233
